Results on one compound are retold here after patent US12065446B2, “Inhibitors of Bruton's tyrosine kinase and method of their use” (JANSSEN PHARMACEUTICA NV, priority 2015, dated 2024).

In the test the target is unphosphorylated-BTK kinase domain (UP-BTK), GST-tagged human BTK (389-659aa) (Homo sapiens (Human), UniProt Q06187). Put plainly: BTK kinase lanthascreen binding assay. To be noted: competition with 50 nM Tracer 236, 60 minutes; pIC50 = negative log of the IC50 in molar. Here is the method: BTK kinase lanthascreen binding assay: A BTK kinase lanthascreen binding assay monitors compound binding to unphosphorylated-BTK kinase domain (UP-BTK), by competing with a fluorescent labeled tracer. […] Data were analyzed using Xlfit™ version 5.3 from ID Business Solutions (Guildford), Microsoft Excel add-in. pIC50 refers to the negative log of the IC50 in molar.
Chain of unphosphorylated-BTK kinase domain (UP-BTK), GST-tagged human BTK (389-659aa) (Q06187 389-659): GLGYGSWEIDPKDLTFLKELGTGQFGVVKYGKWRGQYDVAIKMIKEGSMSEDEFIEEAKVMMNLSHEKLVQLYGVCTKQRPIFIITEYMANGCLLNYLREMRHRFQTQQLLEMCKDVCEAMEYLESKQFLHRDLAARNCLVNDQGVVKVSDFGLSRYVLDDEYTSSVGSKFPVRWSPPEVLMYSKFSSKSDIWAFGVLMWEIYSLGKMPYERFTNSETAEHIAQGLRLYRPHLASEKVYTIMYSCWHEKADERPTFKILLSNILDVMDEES
For orientation: In TR-FRET formats the signal depends on donor and acceptor labels being close together.

Take `C=CC(=O)N[C@@H]1CC[C@@H](NC(=O)c2sc3nccc4c3c2NC(=O)N4c2ccc(Oc3ccccc3)nc2)C1` (racemic) [Example 188, N-((1RS, 3RS)-3-Acrylamidocyclopentyl)-4-oxo-5-(6-phenoxypyridin-3-yl)-4,5-dihydro-3H-1-thia-3,5,8-triazaacenaphthylene-2-carboxamide]: the “BTK_I_binding pIC50” value is listed as 7.11.
